Measured values from US10752913B2, “Selectable marker genes” (Dow AgroSciences LLC, priority 2006, dated 2020).

Tests used:
Assay type in all cases: cell-based
[1] = tested on: NT-1 tobacco cells transformed with pDAB3778 (DSM-2); test: Tobacco cell culture transformation, selection frequency; settings: second experiment
Description: Four days prior to transformation, a 1 week old NT-1 tobacco suspension, which was being subcultured every 7 days, was subcultured to fresh medium by adding 2 ml of the NT-1 culture or 1 ml of packed cells into 40 ml NT-1 B media. The subcultured suspension was maintained in the dark at 25±1° C. on a shaker at 125 rpm.
A 50% glycerol stock of Agrobacterium tumefaciens [strain LBA4404] harboring a binary vector of interest was used to initiate a liquid overnight culture by adding 20, 100, or […] to 30 ml YEP liquid (10 g/L yeast extract, 10 g/L Peptone, 5 g/L NaCl, 0-10 g/L Sucrose) containing 50-100 mg/L spectinomycin. The bacterial culture was incubated in the dark at 28° C. in an incubator shaker at 150-250 rpm until the OD600 was 1.5±0.2. This took approximately 18-20 hrs.
For each vector tested, 20-70 mL of 4-day old suspension cells were transferred into a sterile vessel, to which 500-1750 μl of Agrobacterium suspension at the proper OD was added. To ensure a uniform mixture was achieved, the cells were pipetted up and down 5 times with a 10 ml wide-bore pipet. The uniform suspension was then drawn up into a 25 ml barrel of a repeat pipetter and 250 μl of the suspension was dispensed per well into 24-well plates, continuing until the suspension was exhausted. The well plates were wrapped in parafilm and cultured in the dark at 25±1° C. without shaking for a 3 day co-cultivation.
Following the co-cultivation, all excess liquid was removed from the individual wells with a 1 mL pipet tip, and remaining cells were resuspended in 1 ml NTC liquid (NT-1 B medium containing 500 mg/L carbenicillin, added after autoclaving). The contents of an individual well were dispersed across the entire surface of 100×25 mm selection plates using disposable transfer pipets. Selection media consisted of NTC media solidified with 8 g/l TC agar supplemented with 7.5 to 15 mg/L bialaphos or technical grade glufosinate ammonium, added after autoclaving. All selection plates, left unwrapped, were maintained in the dark at 28° C.
Putative transformants appeared as small clusters of callus on a background of dead, non-transformed cells. Calli were isolated approximately 2-6 weeks post-transformation. Each callus isolate was transferred to its own 60×20 mm plate containing the same selection medium and allowed to grow for approximately 2 weeks before being submitted for analysis.
A side-by-side experiment comparing DSM-2 (v2) with PAT was completed. In the study, 100% of the PAT selection plates produced at least one PCR positive isolate on 10 mg/L bialaphos media, whereas 79% of the DSM-2 (v2) selection plates produced at least one PCR positive isolate.
In a second experiment, DSM-2 (v2)-treated tobacco cells were selected upon 7.5, 10, 12.5, or 15 mg/L bialaphos or technical grade glufosinate ammonium. Transformation frequencies (% of selection plates producing at least one callus) following verification by coding region PCR are listed in the table below.

[2] = tested on: Escherichia coli BL21—Star (DE3); test: Bacterial growth on minimal media containing glufosinate (BASTA); settings: only strain of five tested
Description: Selected cell lines of Escherichia coli and Agrobacterium tumefaciens were inoculated on minimal media containing incrementally increasing concentrations of Glufosinate (BASTA). The cell lines; BL21—Star (DE3), Top10, DH5═, Agrobacterium tumefaciens C58, and Agrobacterium tumefaciens LBA4404s were initially grown up on complex media. The Escherichia coli strains were grown in LB and the Agrobacterium tumefaciens strains were grown in YEP. Five microliters of bacterial culture was inoculated and dispersed evenly onto minimal media plates containing various concentrations of glufosinate. The concentrations consisted of 0 μg/ml, 250 μg/ml, 500 μg/ml, 1000 μg/ml, 2000 μg/ml, and 4000 μg/ml of BASTA. In addition, the bacterial strains were inoculated onto a plate of complex media as a control—Agrobacterium tumefaciens strains were inoculated on YEP agar plates, and Escherichia coli strains were inoculated on LB agar plates. The plates containing the Escherichia coli strains were incubated at 37° C. for 24 hours. The plates containing the Agrobacterium tumefaciens strains were incubate at 25° C. for 48 hours. […] Table 7 illustrates the capability of the various strains to grow on minimal media containing glufosinate.

[3] = tested on: Escherichia coli BL21—Star (DE3) expressing DSM-2 (v2) (pDAB4412); test: Complementation of cell growth on glufosinate, pET expression
Description: A pET28a(+) expression plasmid containing PAT (v3) was constructed as a positive control. PAT (v3) was cloned as an NcoI-SacI fragment into corresponding restriction sites of pDAB779. Positive clones containing the PAT (v3) gene fragment were verified via restriction enzyme digestion. This construct was labeled as pDAB4434.
The plasmids, pDAB4434, pDAB4412, and an empty pET vector (control) were transformed into Escherichia coli BL21—Star (DE3) bacterial cells. Expression cultures were initiated with 10-200 freshly transformed colonies into 250 mL LB medium containing 50 μg/ml antibiotic and 75 μM IPTG (isopropyl-[…]). The cultures were grown at 28° C. for 24 hours at 180-200 rpm. Five microliters of the culture was inoculated onto a complex media control and minimal media containing incrementally increasing concentrations of glufosinate and 20 μM IPTG. The cultures were dispersed evenly over the plates and incubated at 28° C. for 24 hours.

[4] = tested on: Escherichia coli BL21—Star (DE3) with 3264 (CsVMV promoter//DSM-2); test: Complementation on glufosinate with plant/viral promoters; settings: DSM-2 driven by CsVMV promoter
Description: (§1) Plasmid constructs in which the DSM-2 (v2) and PAT gene coding sequences were expressed, under either the viral promoters CsVMV or the plant promoter AtUbi10, were assayed for complementation on minimal media containing glufosinate. The plasmids 3778 (Rb7 MARv3//AtUbi10 promoter//DSM-2 (v2)//Atu Orf 1 3′UTR), 3779 (Rb7 MARv3//AtUbi10 promoter//PAT//Atu Orf 1 3′UTR), 3264 (CsVMV promoter//DSM-2//Atu Orf24 3′UTR), 3037 (CsVMV promoter//PAT//Atu Orf 25/26 3′UTR), and 770 (control plasmid containing CsVMV promoter//GUS v3//Atu Orf 24 3′UTR) were transformed into Escherichia coli BL21—Star (DE3) and grown up in complex media. Five microliters of the cultures were plated on minimal media containing increasing concentrations of Glufosinate and incubated at 37° C. for 48 hours.

[5] = tested on: Escherichia coli BL21—Star (DE3) with 3778 (AtUbi10 promoter//DSM-2 (v2)); test: as above; settings: DSM-2 driven by At Ubi10 promoter
Description: as §1

| Compound | Transformation frequencies (% of selection plates producing at least one callus) following verification by coding region PCR ([1]; 7.5 mg/L in selection medium) | Transformation frequencies (% of selection plates producing at least one callus) following verification by coding region PCR ([1]; 10 mg/L in selection medium) | Transformation frequencies (% of selection plates producing at least one callus) following verification by coding region PCR ([1]; 12.5 mg/L in selection medium) | Transformation frequencies (% of selection plates producing at least one callus) following verification by coding region PCR ([1]; 15 mg/L in selection medium) | inhibition of growth on minimal media [2] | glufosinate concentration on minimal media to which DSM-2 expression complemented resistance [3] | glufosinate concentration in minimal media to which resistance was provided [4] | glufosinate concentration in minimal media to which resistance was provided [5] |
| --- | --- | --- | --- | --- | --- | --- | --- | --- |
| C[C@H](NC(=O)[C@H](C)NC(=O)[C@@H](N)CCP(C)(=O)O)C(=O)O [Bialaphos] | 38.9% | 44.4% | 38.9% | 22.2% | – | – | – | – |
| CP(=O)(O)CCC(N)C(=O)O (stereo not drawn) [glufosinate] | 55.6% | 50.0% | 44.4% | 38.9% | substantially inhibited | 400 µg/mL | 200 µg/mL | 200 µg/mL |
